Experimental data: patent US6288082A, “Substituted 3-cyanoquinolines” (priority 1999, dated 2001)
In brackets after ≈: the same amount, converted by molar mass. Several values for one entry are separate records, joined by “and”; a condition that tells them apart may be missing. Equal values may be shown once.

Tests used:
[1] = target: T1, Epidermal Growth Factor Receptor Kinase (EGF-R) (Homo sapiens, UniProt P00533); assay: Inhibition of Epidermal Growth Factor Receptor Kinase (EGF-R) Using Recombinant Enzyme; assay type: biochemical; conditions: for IC50: recombinant enzyme, RR-SRC peptide substrate
T1 construct: EGFR cDNA encoding amino acids 645-1186 preceded by Met-Ala-(His)6; Met-Ala-(His)6 (N); made in house; host or cells: Sf9 insect cells, recombinant baculovirus vHcEGFR52
Description: Inhibition of Epidermal Growth Factor Receptor Kinase (EGF-R) Using Recombinant Enzyme
Representative test compounds were evaluated for their ability to inhibit the phosphorylation of the tyrosine residue of a peptide substrate catalyzed by the enzyme epidermal growth factor receptor kinase. The peptide substrate (RR-SRC) has the sequence arg-arg-leu-ile-glu-asp-ala-glu-tyr-ala-ala-arg-gly. The enzyme used in this test procedure is the His-tagged cytoplasmic domain of EGFR. A recombinant baculovirus (vHcEGFR52) was constructed containing the EGFR cDNA encoding amino acids 645-1186 preceded by Met-Ala-(His)6. Sf9 cells in 100 mm plates were infected at an moi of 10 pfu/cell and cells were harvested 48 h post infection. A cytoplasmic extract was prepared using 1% Triton X-100 and applied to Ni-NTA column. After washing the column with 20 mM imidazole, HcEGFR was eluted with 250 mM imidazole (in 50 mM Na2 HPO4, pH 8.0, 300 mM NaCl). Fractions collected were dialyzed against 10 mM HEPES, pH 7.0, 50 mM NaCl, 10% glycerol, 1 ug/mL antipain and leupeptin and 0.1 mM Pefabloc SC. The protein was frozen in dry ice/methanol and stored -70° C.
Test compounds were made into 10 mg/mL stock solutions in 100% dimethylsulfoxide (DMSO). Prior to experiment, stock solutions were diluted to 500 uM with 100% DMSO and then serially diluted to the desired concentration with HEPES buffer (30 mM HEPES pH 7.4).
For the enzyme reaction, 10 uL of each inhibitor (at various concentrations) were added to each well of a 96-well plate. To this was added 3 uL of enzyme (1:10 dilution in 10 mM HEPES, pH 7.4 for final conc. of 1:120). This was allowed to sit for 10 min on ice and was followed by the addition of 5 ul peptide (80 uM final conc.), 10 ul of 4×Buffer (Table A), 0.25 uL ^33 P-ATP and 12 uL H2 O. The reaction was allowed to run for 90 min at room temperature and was followed by spotting the entire volume on to precut P81 filter papers. The filter discs were washed 2× with 0.5% phosphoric acid and radioactivity was measured using a liquid scintillation counter. […]
The inhibition data for representative compounds of the invention are shown below in TABLE 1. […] The % inhibition of the test compound was determined for at least three different concentrations and the IC50 value was evaluated from the dose response curve. The % inhibition was evaluated with the following formula: […]
where CPM(drug) is in units of counts per minute and is a number expressing the amount of radiolabled ATP (γ-^33 P) incorporated onto the RR-SRC peptide substrate by the enzyme after 90 minutes at room temperature in the presence of test compound as measured by liquid scintillation counting. CPM(control) is in units of counts per minute and was a number expressing the amount of radiolabled ATP (γ-^33 P) incorporated into the RR-SRC peptide substrate by the enzyme after 90 minutes at room temperature in the absence of test compound as measured by liquid scintillation counting. The CPM values were corrected for the background counts produced by ATP in the absence of the enzymatic reaction.

[2] = target: Mitogen Activated Protein Kinase (Mek-Erk); assay: Mitogen Activated Protein Kinase (MAPK) assay, coupled Mek-Erk; assay type: biochemical, human; conditions: MBP or Myc peptide substrate, pH 7.4
Description: Mitogen Activated Protein Kinase (MAPK) Assay
To evaluate inhibitors of the MAP (mitogen activated protein) kinase a two component coupled standard pharmacological test procedure, which measures phosphorylation of a serine/threonine residue in an appropriate sequence in the substrate in the presence and absence of a putative inhibitor, was used. Recombinant human MEK 1 (MAPKK) was first used to activate recombinant human ERK2 (MAPK) and the activated MAPK (ERK) was incubated with substrate (MBP peptide or MYC peptide) in the presence of ATP, Mg^+2 and radiolabeled ^33 P ATP. The phosphorylated peptide was captured on a P 81 phosphocellulose filter (paper filter or embedded in microtiter plate) washed and counted by scintillation methods.
The peptide substrates used in the assay are MBP, peptide substrate ([…]), or synthetic Myc substrate, ([…]·5 TFA. The recombinant enzymes used were prepared as GST fusion proteins of human ERK 2 and human MEK 1. Inhibitor samples were prepared as 10×stocks in 10% DMSO and an appropriate aliquot was used to deliver either 10 ug/ml for a single point screening dose or 100, 10, 1, and 0.1 uM final concentration for a dose response curve. Final DMSO concentrations were less than or equal to 1%.
The reaction was run as follows in 50 mM Tris kinase buffer, pH 7.4 in a reaction volume of 50 ul. The appropriate volume of kinase buffer and inhibitor sample was added to the tube. Appropriate dilution of enzyme was delivered to give 2-5 ug recombinant MAPK (Erk ) per tube. The inhibitor was incubated with MAPK (Erk) for 30 min at 0 deg. C. Recombinant Mek (MAPKK) (0.5-2.5 ug) or fully activated Mek (0.05-0.1 units) was added to activate the Erk and incubated for 30 min at 30° C. Then substrate and gamma ^33 P ATP was were added to give a final concentration of 0.5-1 mM MBPP or 250-500 uM Myc; 0.2-0.5 uCi gamma P 33 ATP/tube; 50 μM ATP final concentration. Samples were incubated at 30° C. for 30 minutes and the reaction was stopped by adding 25 μl of ice cold 10% TCA. After samples were chilled on ice for 30 min, 20 μl of sample was transferred onto P 81 phosphocellulose filter paper or appropriate MTP with embedded P 81 filter. Filter papers or MTP were washed 2 times with a large volume of 1% acetic acid, then 2 times with water. The filters or MTP were briefly air dried before addition of scintillant and samples were counted in the appropriate scintillation counter set up for reading ^33 P isotope. Samples included a positive control (activated enzyme plus substrate); a no enzyme control; a no substrate control; samples with different concentrations of putative inhibitor; and samples with reference inhibitors (other active compounds or non-specific inhibitors such as staurosporine or K252 B).
The raw data was captured as cpm. Sample replicates were averaged and corrected for background count. Mean cpm data was tabulated by group and % inhibition by a test compound was calculated as (corrected cpm control-corrected. cpm sample/control)×100=% inhibition. […] The results obtained for representative compounds of this invention are listed in TABLE 2 where there may be separate entries for the same compound; this is an indication that the compound was evaluated more than one time.

[3] = tested on: human colon carcinoma SW620; conditions: 3 mg/kg/dose IP days 1-20, Day 7
A431 = assay: Inhibition of cancer cell growth as measured by cell number, A431; assay type: cell-based; conditions: Homo sapiens, A-431, 48 h, A431, 48 hours exposure
Description: (§1) Inhibition of Cancer Cell Growth as Measured by Cell Number […] […] After 48 hours exposure to test compounds, cells were fixed with trichloroacetic acid, and stained with Sulforhodamine B. After washing with trichloroacetic acid, bound dye was solubilized in 10 mM Tris base and optical density was determined using plate reader. Under conditions of the assay the optical density is proportional to the number of cells in the well. […] The test procedure is described in details by Philip Skehan et. al, J.Natl. Canc. Inst., 82, 1107-1112 (1990). […] Information about some of the cell lines used in these test procedures is available from the American Type Tissue Collection: Cell Lines and Hybridomas, 1994 Reference Guide, 8th Edition.

MDA-MB-435 = assay: Inhibition of cancer cell growth as measured by cell number, MDA-MB-435; assay type: cell-based; conditions: Homo sapiens, MDA-MB-435, 48 h, MDA-MB-435, 48 hours exposure
Description: as §1

SK-BR3 = assay: Inhibition of cancer cell growth as measured by cell number, SK-BR3; assay type: cell-based; conditions: Homo sapiens, SK-BR-3, 48 h, SK-BR3, 48 hours exposure
Description: as §1

SW620 = assay: Inhibition of cancer cell growth as measured by cell number, SW620; assay type: cell-based; conditions: Homo sapiens, SW-620, 48 h, SW620, 48 hours exposure
Description: as §1

[4] = target: Epithelial Cell Kinase (ECK) (Homo sapiens, UniProt P29317); assay: Inhibition of Epithelial Cell Kinase (ECK); assay type: biochemical; conditions: biotinylated peptide substrate, pH 7.2
3T3/c-erbb2 = assay: Inhibition of cancer cell growth as measured by cell number, 3T3/c-erbb2; assay type: cell-based; conditions: 3T3/c-erbb2, 48 hours exposure
Description: as §1

3T3 = assay: Inhibition of cancer cell growth as measured by cell number, 3T3; assay type: cell-based; conditions: Mus musculus, NIH3T3; 3T3, 48 hours exposure
Description: as §1

[5] = target: T2, Kinase insert Domain containing Receptor (KDR) (Homo sapiens, UniProt P35968); assay: Inhibition of Kinase insert Domain containing Receptor (KDR; the catalytic domain of the VEGF receptor); assay type: biochemical; conditions: substrate E:Y 4:1, pH 7.2
T2 construct: KDR; the Catalytic Domain of the VEGF Receptor
T2 sequence (P35968 834-1162 limits assumed): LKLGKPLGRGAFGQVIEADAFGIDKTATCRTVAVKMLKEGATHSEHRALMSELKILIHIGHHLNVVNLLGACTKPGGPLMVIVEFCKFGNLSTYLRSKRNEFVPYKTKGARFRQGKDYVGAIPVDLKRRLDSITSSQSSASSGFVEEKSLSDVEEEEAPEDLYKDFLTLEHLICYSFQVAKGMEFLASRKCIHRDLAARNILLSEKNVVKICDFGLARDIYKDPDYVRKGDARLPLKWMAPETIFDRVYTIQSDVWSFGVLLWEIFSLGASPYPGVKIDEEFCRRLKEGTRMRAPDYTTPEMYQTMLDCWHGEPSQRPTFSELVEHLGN

Epithelial Cell Kinase (ECK), sequence (P29317 24-976): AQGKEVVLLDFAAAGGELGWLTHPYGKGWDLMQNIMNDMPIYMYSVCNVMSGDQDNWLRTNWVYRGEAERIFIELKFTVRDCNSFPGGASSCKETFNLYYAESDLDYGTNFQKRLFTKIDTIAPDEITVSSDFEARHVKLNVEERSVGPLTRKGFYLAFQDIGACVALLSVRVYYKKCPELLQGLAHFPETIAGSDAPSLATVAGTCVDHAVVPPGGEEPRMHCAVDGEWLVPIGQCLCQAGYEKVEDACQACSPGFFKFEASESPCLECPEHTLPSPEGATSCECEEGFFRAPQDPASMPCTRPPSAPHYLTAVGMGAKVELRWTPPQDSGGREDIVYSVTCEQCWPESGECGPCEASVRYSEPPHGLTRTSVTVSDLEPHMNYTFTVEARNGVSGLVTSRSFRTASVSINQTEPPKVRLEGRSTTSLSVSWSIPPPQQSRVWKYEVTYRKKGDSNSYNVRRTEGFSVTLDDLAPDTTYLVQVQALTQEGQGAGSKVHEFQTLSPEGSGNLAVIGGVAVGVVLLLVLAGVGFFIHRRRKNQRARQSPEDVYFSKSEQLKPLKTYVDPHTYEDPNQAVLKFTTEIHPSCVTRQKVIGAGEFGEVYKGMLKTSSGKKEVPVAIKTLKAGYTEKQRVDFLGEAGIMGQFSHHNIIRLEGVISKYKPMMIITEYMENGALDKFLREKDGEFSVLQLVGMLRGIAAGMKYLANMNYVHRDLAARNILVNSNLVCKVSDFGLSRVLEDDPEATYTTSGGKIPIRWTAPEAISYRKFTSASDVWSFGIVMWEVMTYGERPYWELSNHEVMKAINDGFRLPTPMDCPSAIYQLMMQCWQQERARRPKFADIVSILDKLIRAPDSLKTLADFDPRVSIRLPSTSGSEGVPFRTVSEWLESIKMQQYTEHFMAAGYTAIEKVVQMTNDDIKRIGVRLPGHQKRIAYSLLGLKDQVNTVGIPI
T1 sequence (P00533 669-1210): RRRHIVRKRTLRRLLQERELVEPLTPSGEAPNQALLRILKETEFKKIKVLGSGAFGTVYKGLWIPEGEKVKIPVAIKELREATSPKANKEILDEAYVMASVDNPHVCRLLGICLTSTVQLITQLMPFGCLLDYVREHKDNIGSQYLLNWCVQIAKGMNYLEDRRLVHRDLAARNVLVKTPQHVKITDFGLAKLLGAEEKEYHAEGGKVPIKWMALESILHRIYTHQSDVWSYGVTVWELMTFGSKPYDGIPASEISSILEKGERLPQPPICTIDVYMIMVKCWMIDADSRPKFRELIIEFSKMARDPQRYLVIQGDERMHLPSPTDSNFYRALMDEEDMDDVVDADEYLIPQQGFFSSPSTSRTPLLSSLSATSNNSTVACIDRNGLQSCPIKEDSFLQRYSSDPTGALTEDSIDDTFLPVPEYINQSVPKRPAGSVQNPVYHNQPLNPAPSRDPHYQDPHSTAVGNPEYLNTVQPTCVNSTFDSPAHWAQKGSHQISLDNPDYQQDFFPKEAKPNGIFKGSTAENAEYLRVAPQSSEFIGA

Row | IC50 [1] [µM] | IC50 [2] | IC50 [4] | IC50 [5] [µM] | SMILES | IC50 (3T3/c-erbb2) [µg/mL] | other results
1 | > 1 | > 100 µM | – | – | CCOc1cc2ncc(C#N)c(Nc3ccc4c(c3)C(=O)OC4)c2cc1OCC [Example 111, 6,7-Diethoxy-4-(3-oxo-1,3-dihydro-isobenzofuran-5-ylamino)-quinoline-3-carbonitrile] | – | –
2 | – | – | – | – | CCOc1cc2ncc(C#N)c(Nc3ccc4cn[nH]c4c3)c2cc1OCC [Example 99, 6,7-Diethoxy-4-(1H-indazol-6-ylamino)-quinoline-3-carbonitrile] | – | Relative Tumor Growth Day 7 [3]: 3.80
3 | > 0.5 | 25 µM | – | – | CCOc1cc2ncc(C#N)c(Nc3ccc4cn[nH]c4c3)c2cc1OC [Example 115, 7-Ethoxy-4-(indazol-6-ylamino)-6-methoxy-quinoline-3-carbonitrile] | – | –
4 | > 1 | – | – | – | CCOc1cc2ncc(C#N)c(Nc3ccc4cc[nH]c4c3)c2cc1OCC [Example 101, 6,7-Diethoxy-4-(1H-indol-6-ylamino)-quinoline-3-carbonitrile] | – | –
5 | – | > 100 µM and 50 µM | 0.155 µM and 0.036 µM | > 77.4 | CCOc1cc2ncc(C#N)c(Nc3ccc4c(c3)CCC4=O)c2cc1OCC [Example 110, 6,7-Diethoxy-4-(1-oxo-indan-5-ylamino)-quinoline-3-carbonitrile] | 0.0311 (≈ 0.0803 µM) | IC50 (A431): 0.0244 µg/mL (≈ 0.063 µM); IC50 (MDA-MB-435): 0.028 µg/mL (≈ 0.0723 µM); IC50 (SK-BR3): 0.0281 µg/mL (≈ 0.0725 µM); IC50 (SW620): 0.0181 µg/mL (≈ 0.0467 µM); IC50 (3T3): 0.0923 µg/mL (≈ 0.238 µM)
6 | > 1 | > 100 µM | – | – | CCOc1cc2ncc(C#N)c(Nc3ccc4c(c3)C(=O)NCC(=O)N4C)c2cc1OCC [Example 127, 6,7-Diethoxy-4-(1-methyl-2,5-dioxo-2,3,4,5-tetrahydro-1H-benzo[e][1,4]diazepin-7-ylamino)-quinoline-3-carbonitrile] | – | –
7 | – | – | – | – | CCOc1cc2ncc(C#N)c(Nc3ccc4c(c3)CCC4)c2cc1OCC [Example 108, 6,7-Diethoxy-4-(indan-5-ylamino)-quinoline-3-carbonitrile] | 0.198 (≈ 0.53 µM) | –
8 | – | – | > 51.1 µM | 76.6 | CCOc1cc2ncc(C#N)c(Nc3ccc4c(c3)OCCO4)c2cc1OCC [Example 105, 4-(2,3-Dihydro-benzo[1,4]dioxin-6-ylamino)-6,7-diethoxy-quinoline-3-carbonitrile] | 0.375 (≈ 0.958 µM) | IC50 (A431): 0.27 µg/mL (≈ 0.69 µM); IC50 (MDA-MB-435): 0.235 µg/mL (≈ 0.6 µM); IC50 (SK-BR3): 0.281 µg/mL (≈ 0.718 µM); IC50 (SW620): 0.411 µg/mL (≈ 1.05 µM); IC50 (3T3): 0.853 µg/mL (≈ 2.18 µM)
9 | – | – | – | 2.65 | CCOc1cc2ncc(C#N)c(Nc3ccc4c(c3)OCO4)c2cc1OCC [Example 98, 4-(Benzo[1,3]dioxol-5-ylamino)-6,7-diethoxy-quinoline-3-carbonitrile] | – | –

Row | SMILES | IC50 [1] [µM] | IC50 [2] | IC50 [4] | IC50 [5] [µM] | IC50 (3T3/c-erbb2) [µg/mL] | other results
10 | CCOc1cc2ncc(C#N)c(Nc3ccc4c(c3)NCC4)c2cc1OCC [Example 96, 4-(2,3-Dihydro-1H-indol-6-ylamino)-6,7-diethoxy-quinoline-3-carbonitrile] | > 10 | – | > 53.5 µM | 8.02 | – | inhibition at 0.5 µM ([1]; read-out: % Inh @ 0.5 μM): 6%
